Measured values as given in US20080311047A1, “Multimetric Biosensors and Methods of Using Same” (priority 2005, published 2008).

Experiments:
[1] = molecular target: T1, FLIPW-CTY (eCFP-TrpR-Venus) (Escherichia coli, UniProt P0A881); experiment: In vitro FRET titration of FLIPW-CTY with tryptophan substrates; format: binding, E. coli; details: for Kd: 20 mM MOPS pH 7.0, read-out: Affinity of FLIPW-CTY for tryptophan substrate
T1 construct: made in house; host or cells: E. coli BL21(DE3)gold
Protocol: (§1) In Vitro Characterization of FLIPW and FLIPpur Sensors: Purified sensor was added to a dilution series of ligand in 20 mM MOPS pH 7.0 (FLIPW) or 20 mM MES pH7.0 (FLIPpur) in the range of 10^−2 to 10^−6 M and analyzed in a monochromator microplate reader (Safire, Tecan, Austria; excitation 433/12 nm, emission 485/12 and 528/12 nm). Protein was diluted to give Venus/eYFP readouts of 20,000 to 30,000 at a manual gain between 70-75. By using the change in FRET ratio upon binding of ligand, binding constants (Kd) were determined by fitting the substrate titration curves to a single-site-binding isotherm. Formulas for decrease in ratio upon ligand binding:
(§2) R=Rmax−(n·[S])/(Kd+[S])·(Rmax−Rmin)
(§3) with [S], substrate concentration; n, number of equal binding sites; R, ratio; Rmax, maximum ratio in the absence of ligand; and Rmin, minimum ratio at saturation with ligand. Formula for increase in ratio upon ligand binding:
(§4) R=Rmin+(Rmax−Rmin)·(n·[S])/(Kd+[S])
(§5) with [S], substrate concentration; n, number of equal binding sites; R, ratio; Rmax, maximum ratio at saturation with ligand; and Rmin, minimum ratio in absence of ligand. Three independent protein preparations were analyzed and each protein preparation was analyzed in triplicate.

[2] = molecular target: T2, FLIPpur (His6-eCFP-PurR-eYFP fusion of E. coli purine repressor PurR, residues 56 to 341, Arg190Gln, Leu263Pro) (Escherichia coli, UniProt P0ACP7, L263P/R190Q); experiment: hypoxanthine titration of FLIPpur by FRET ratio change; format: binding
T2 construct: expressed in E. coli BL21(DE3)gold, purified
Description: FLIPW and FLIPpur constructs were harbored in E. coli BL21(DE3)gold and sensor proteins were produced and purified as described previously (Fehr et al. 2002).

[3] = system: E. coli purine repressor PurR variant Arg190Gln; details: Lu et al. 1998; cited from earlier work
[4] = molecular target: T3, FLIPW-CTYT (eCFP-TrpR-Venus-TrpR) (Escherichia coli, UniProt P0A881); experiment: In vitro FRET titration of FLIPW-CTYT with tryptophan substrates; format: binding, E. coli; details: 20 mM MOPS pH 7.0; read-out: Affinity of FLIPW-CTYT for tryptophan substrate
T3 construct: The gene products of pTK203, pTK204, and pTK205 were denoted FLIPW-TCTY, FLIPW-CTYT, and FLIPW-CTTY, respectively; made in house; host or cells: E. coli BL21(DE3)gold
Protocol: as §1, §2, §3, §4, §5

COS-7 cells [5] = details: read-out: apparent KM for combined transport and metabolism
Protocol: (§6) Tissue Culture and Transfection: For cytosolic expression in COS-7 cells, the gene encoding CTYT was amplified by PCR with primers encoding unique BamHI and EcoRI restriction sites at the 5′ and 3′ end, respectively, and cloned into BamHI/EcoRI digested pcDNA3.1(+) vector (Invitrogen), resulting in plasmid pTK222. COS-7 cells were grown in Dulbecco's modified Eagle's medium (high glucose; DMEM, Gibco) with 10% fetal calf serum and 50 μg/ml penicillin and streptomycin (Gibco). Cells were cultured at 37° C. and 5% CO2. For imaging, cells were cultured in 8-well LabTekII German tissue culture glass slides (Nalg Nunc International) and transiently transfected at 50-70% confluence using Lipofectamine 2000 Reagent (Invitrogen) in Opti-MEM I reduced serum medium (Gibco). After transfection, cells were cultured for 16 hours in Opti-MEM followed by 3 hours in DMEM prior to imaging.
(§7) Microplate Assays: Adherent cells in 96-well microplates were washed once with 100 μl Tyrode's buffer (119 mM NaCl, 2.5 mM KCl, 2 mM CaCl2, 2 mM MgCl2, 25 mM HEPES, 30 mM glucose, pH 7.3-7.4).

[6] = molecular target: FLIPW-CTY (eCFP-TrpR-Venus fusion of E. coli tryptophan repressor TrpR, SEQ ID NO: 3) (Escherichia coli, UniProt P0A881); experiment: L-tryptophan analog titration of FLIPW-CTY by FRET ratio change, single-site-binding isotherm; details: FLIPW-CTY Kd compared with free TrpR (Marmorstein et al. 1987); larger than free TrpR
Description: The protein sequence encoded on pTK164 was denoted FLIPW-CTY.

[7] = molecular target: FLIPW-TCTY (TrpR-eCFP-TrpR-Venus fusion of E. coli tryptophan repressor TrpR, SEQ ID NO: 5) (Escherichia coli, UniProt P0A881); experiment: L-tryptophan titration of FLIPW-TCTY by FRET ratio change; details: 20 mM MOPS pH 7.0, apparent binding constant
COS-7 cells [8] = experiment: tryptophan uptake by COS-7 cell cultures in 96-well microplates monitored with FLIPW-CTYT; format: cell-based, monkey; details: in words
Protocol: as §6, §7

human TAT1 = molecular target: T4, human TAT1 (Homo sapiens, UniProt Q8TF71); details: human TAT1 in Xenopus oocytes (Kim et al. 2002); cited from earlier work
T4 construct: host or cells: Xenopus oocytes
T4 sequence (Q8TF71 1-515): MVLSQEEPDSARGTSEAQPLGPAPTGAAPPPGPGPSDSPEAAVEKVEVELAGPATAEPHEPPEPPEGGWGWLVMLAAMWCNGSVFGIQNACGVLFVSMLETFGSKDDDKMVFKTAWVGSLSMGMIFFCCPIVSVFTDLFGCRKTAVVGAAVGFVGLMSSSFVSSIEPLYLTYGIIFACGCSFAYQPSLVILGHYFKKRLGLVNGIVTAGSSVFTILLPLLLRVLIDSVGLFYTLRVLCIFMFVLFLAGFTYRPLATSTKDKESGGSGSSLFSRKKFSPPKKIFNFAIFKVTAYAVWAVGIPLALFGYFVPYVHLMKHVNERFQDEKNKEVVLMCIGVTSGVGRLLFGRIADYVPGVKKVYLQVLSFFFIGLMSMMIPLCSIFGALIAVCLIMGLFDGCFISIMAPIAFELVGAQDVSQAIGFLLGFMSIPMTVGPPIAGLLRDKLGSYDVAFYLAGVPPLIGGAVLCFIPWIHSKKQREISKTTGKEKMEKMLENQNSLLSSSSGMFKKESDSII

LAT2 = molecular target: T5, LAT2 (Homo sapiens, UniProt Q9UHI5); details: LAT2 in Xenopus oocytes (Pineda et al. 1999); cited from earlier work
T5 construct: host or cells: Xenopus oocytes
T5 sequence (Q9UHI5 1-535): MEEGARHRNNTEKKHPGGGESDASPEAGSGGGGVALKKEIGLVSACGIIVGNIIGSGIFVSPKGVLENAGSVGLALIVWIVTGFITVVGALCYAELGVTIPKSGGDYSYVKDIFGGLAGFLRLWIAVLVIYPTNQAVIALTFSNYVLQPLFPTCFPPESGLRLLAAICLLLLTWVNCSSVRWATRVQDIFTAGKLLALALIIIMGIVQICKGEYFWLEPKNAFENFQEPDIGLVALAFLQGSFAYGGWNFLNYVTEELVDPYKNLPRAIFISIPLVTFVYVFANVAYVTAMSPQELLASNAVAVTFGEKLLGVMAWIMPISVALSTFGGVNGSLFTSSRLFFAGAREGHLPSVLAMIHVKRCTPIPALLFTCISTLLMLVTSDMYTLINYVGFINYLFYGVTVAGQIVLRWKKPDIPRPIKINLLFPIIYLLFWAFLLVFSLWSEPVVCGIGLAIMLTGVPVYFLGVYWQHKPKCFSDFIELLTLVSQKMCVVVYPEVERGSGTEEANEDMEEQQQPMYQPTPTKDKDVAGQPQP

[9] = system: E. coli tryptophan operon repressor TrpR, wild-type, SEQ ID NO: 1; details: Marmorstein et al. 1987; cited from earlier work

T2 sequence (P0ACP7 56-341 R190Q/L263P): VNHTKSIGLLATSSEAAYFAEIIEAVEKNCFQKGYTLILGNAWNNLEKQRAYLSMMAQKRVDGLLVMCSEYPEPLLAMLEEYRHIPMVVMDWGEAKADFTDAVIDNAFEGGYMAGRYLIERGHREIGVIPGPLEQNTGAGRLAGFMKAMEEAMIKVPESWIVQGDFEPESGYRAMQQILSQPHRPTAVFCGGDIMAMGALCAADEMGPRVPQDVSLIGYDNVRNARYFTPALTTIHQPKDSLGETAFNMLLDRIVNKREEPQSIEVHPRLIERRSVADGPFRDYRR

For `Cc1ccc2[nH]cc(C[C@H](N)C(=O)O)c2c1` [L-5-methyl-tryptophan], the Kd [1] was 60 ± 10 µM.

In the case of `O=c1[nH]cnc2nc[nH]c12` [hypoxanthine], the Kd [2] is given as 5.6 ± 0.7 µM and the “Kd of free PurR Arg190Gln compared with FLIPpur” value [3] is given as “identical to that of free PurR Arg190Gln”.

`N[C@@H](Cc1c[nH]c2ccccc12)C(=O)O` [L-tryptophan] showed a Kd [1] of 220 ± 20 µM, a Kd [4] of 210 ± 20 µM and a Km (COS-7 cells [5]) of 0.88 ± 0.27 µM. For the same compound, the “apparent Kd relative to free TrpR” value [6] was “about an order of magnitude”, the Kd [7] was 20 µM and the “effective KM for combined tryptophan uptake and metabolism” value (COS-7 cells [8]) was “in the micromolar range”. For the same compound, the Tryptophan uptake affinity (human TAT1) was 450 µM, the Tryptophan uptake affinity (LAT2) was 58 µM and the affinity [9] was “micromolar affinity”.

In the case of `N[C@@H](Cc1c[nH]c2ccc(O)cc12)C(=O)O` [L-5-hydroxy-tryptophan], the Kd [1] is reported as 6000 ± 800 µM.

In the case of `N[C@H](Cc1c[nH]c2ccccc12)C(=O)O` [D-tryptophan], the Kd [1] is reported as 3100 ± 300 µM and the “Concentration giving decrease of FRET ratio relative to L-tryptophan” value ([1]; titration of FLIPW-CTY, higher concentrations than L-tryptophan) is reported as “about 5 fold”.
